Reference: patent publication US20100068743A1, “Method for predicting response of cancer patient to anticancer drug treatment” (John Wayne Cancer Institute and Sysmex Corporation, priority 2008, published 2010)

Legend:
[1] = tested on: tumor tissue of breast cancer patients; assay: Reduction rate of tumor after chemotherapy (tumor size before and after) in breast cancer patients; format: in vivo, human; conditions: individual breast cancer patient, after receiving the chemotherapy prescribed in the regimen
Protocol: Next, CDK1 expression level, CDK1 active value, CDK2 expression level, CDK2 active value of malignant tumors collected by needle biopsy from breast cancer patients before receiving chemotherapy are measured, and CDK1 specific activity and CDK2 specific activity are obtained. Meanwhile, the reduction rate of tumor is obtained by measuring a size of tumor tissue of each patient before and after the chemotherapy. In Table 1, CDK1 SA denotes CDK1 specific activity, CDK2SA denotes CDK2 specific activity, […] denotes cell cycle profile score, and reduction rate of tumor denotes reduction rate of tumors after receiving the chemotherapy prescribed in the regimen. In the column of the regimen, “wT” means paclitaxel, “FEC” means fluorouracil, cyclophosphamide, epirubicin, “CE” means cyclophosphamide, epirubicin, “Doce” means docetaxel, “ZL” means zoladex, “TM” means tamoxifen, and “UFT” means uracil, tegafur.

[2] = tested on: malignant tumors of breast cancer patients; assay: Pathological complete response (pCR) attained by chemotherapy in breast cancer patients; format: in vivo, human; conditions: individual breast cancer patient, after chemotherapy regimen; 1 = pathological complete response
Protocol: For breast cancer patients listed in Table 3 shown below, CDK1 expression level, CDK1 active value, CDK2 expression level, CDK2 active value of malignant tumors collected by needle biopsy before receiving chemotherapy are measured, and CDK1 specific activity and CDK2 specific activity are obtained. Further for each of patients shown in Table 3, whether or not pathological complete response (pCR) has been attained by the chemotherapy is shown in Table 3. In the column “pCR” in Table 3, “1” denotes pathological complete response.

CC(=O)O[C@H]1C(=O)[C@@]2(C)[C@H]([C@H](OC(=O)c3ccccc3)[C@]3(O)C[C@H](OC(=O)[C@H](O)[C@@H](NC(=O)c4ccccc4)c4ccccc4)C(C)=C1C3(C)C)[C@]1(OC(C)=O)CO[C@@H]1C[C@@H]2O [wT, paclitaxel]
Reduction rate of tumor [1]: 70% | pCR [2]: 0
